Results reported in patent publication US7452701B2, “Methods for the preparation of β-amino acids” (Wisconsin Alumni Research Foundation, priority 1998, dated 2008).
Entries after “also recorded” stand apart in the source; their conditions may differ.

Assays:
[1] = biological target: T1, Clostridium subterminale SB4 lysine-2,3-aminomutase (Clostridium subterminale, UniProt Q9XBQ8); assay: EPR spectroscopy of lysine 2,3-aminomutase and coenzymes mixed with L-α-amino acids; type: biochemical; settings: amino acid in place of L-lysine, frozen, EPR at 77 K
T1 construct: made in house; host or cells: E. coli BL21(DE3) with pET-23a(+) (lysine 2,3-aminomutase gene) and pAlter-Ex2 (dnaY gene)
Description: FIG. 3 is electron paramagnetic resonance (EPR) spectroscopy of Clostridium subterminale SB4 lysine-2,3-aminomutase in the presence of L-lysine (1), L-aspartate (2), L-glutamate (3), or no substrate (4). Reductively incubated recombinant-produced purified lysine-2,3-aminomutase (18) (75 μM-hexamer) was quickly mixed at 24° C. and frozen (total time<15 sec) at −150° C. with the following components: A) Tris(hydroxymethyl)aminomethane sulfate (Tris-sulfate) 240 mM pH 8.0; B) S-(5′-adenosyl)-L-methionine 1.4 mM; C) sodium hydrosulfite 2.0 mM; D) L-lysine, L-aspartate, or L-glutamate 120 mM. Concentrations listed are final concentrations after mixing. Following freezing, samples were evaluated at 77° K by EPR using a Varian model E3 spectrometer with the following settings: Field center—3250 Gauss; Scan width—200 Gauss; Microwave frequency—9.1 GHz; Microwave power—5 milli Watts; Modulation frequency—100 kHz; Modulation amplitude—1.6 Gauss; Time constant—0.3 sec.; Scan time—240 sec; Gain—125,000.
FIG. 4 is electron paramagnetic resonance (EPR) spectroscopy of Clostridium subterminale SB4 lysine-2,3-aminomutase in the presence of L-alanine (2), L-alanine+ethylamine (3) L-alanine+propylamine (4), L-lysine (5) and no substrate (1). Conditions as given in FIG. 3 except L-lysine or L-alanine 120 mM; ± ethylamine or propylamine each 0.19 M or no substrate (5).
FIG. 5 is electron paramagnetic resonance spectroscopy of Clostridium subterminale SB4 lysine-2,3-aminomutase in the presence of L-lysine (1), L-homoserine (2), DL-homocysteine (3), or L-methionine (4). Reductively incubated recombinant-produced purified lysine-2.3-aminomutase (18) (51.4 μM-hexamer) was quickly mixed at 24° C. and frozen (total time<15 sec) at −150° C. with the following components: A) Tris(hydroxymethyl)aminomethane sulfate (Tris-sulfate) 185 mM pH 8.0; B) S-(5′-adenosyl)-L-methionine 1.1 mM; C) sodium hydrosulfite 1.5 mM; D) L-lysine 92 mM, L-homoserine 92 mM, or DL-homocysteine 92 mM, or L-methionine 65 mM. Concentrations listed are final concentrations after mixing. Following freezing, samples were evaluated at 77° K by EPR using a Varian model E3 spectrometer with the following settings: Field center—3250 Gauss; Scan width—200 Gauss; Microwave frequency—9.1 GHz; Microwave power—5 milli Watts; Modulation frequency—100 kHz; Modulation amplitude—1.6 Gauss; Time constant—0.3 sec.; Scan time—240 sec; Gain—250,000. FIG. 4B. 4.6×enlargement of (2), (3), and (4) of FIG. 4A.
Although lysine 2,3-aminomutase is selective for L-lysine as its substrate, it also catalyzes the 2,3-aminomutation of other L-α-amino acids. A simple and definitive assay for such reaction is the EPR spectrum of a mixture of lysine 2,3-aminomutase with its coenzymes and an L-α-amino acid.
The spectral envelope is determined by five structural features in the substrate: 1) the L-configuration at the optically active carbon-2, shown as Cα in FIG. 1A; 2) a hydrogen atom bonded to Cα; 3) a carboxyl group bonded to Cα; 4) a nitrogen atom bonded to Cβ; and 5) a hydrogen atom bonded to Cβ. […] The conformation of the radical is determined by the dihedral angles relating the axis of the π-radical orbital to the bonds Cα—H, Cβ—H, and Cβ—N, and these angles determine the nuclear hyperfine splitting in the spectrum and, thereby, the shape of the spectral envelope.

[2] = biological target: T1, Clostridium subterminale SB4 lysine-2,3-aminomutase; assay: Conversion of L-alanine to β-alanine by lysine 2,3-aminomutase, HPLC of PITC derivatives; type: biochemical; settings: for effect of amine on generation of β-alanine from L-alanine: amine 0.2 M, L-alanine 0.38 M, 90 min at 37° C.
Description: FIG. 6 is time course of the appearance of the HPLC peak of β-alanine by Clostridium subterminale SB4 lysine 2,3-aminomutase. Reductively incubated recombinant-produced purified lysine-2,3-aminomutase (18) (10 μM-hexamer) was mixed with the following components: A) N-[2-hydroxyethyl-piperazine-N′-[3-propanesulfonic acid] (EPPS) 36 mM pH 8.0, Na salt; B) S-(5′-adenosyl)-L-methionine 390 μM; C) sodium hydrosulfite 3.6 mM; D) L-alanine 380 mM; E) ethylamine 0.20 M pH 8.0. At various time intervals at 37° C., 60 μl of reaction mix was added to 20 μl of 2 N perchloric acid to stop the reaction. Samples were centrifuged at 14,000×g for 10 mm. The supernatants were treated with phenylisothiocyanate (PITC) according to the method of Heinrikson and Meredith (28). The PITC derivative of L-alanine was separated from the β-alanine derivative by HPLC chromatography (28) using a C18 reverse phase column (Beckman Ultrasphere 5μ, 4.6 mm×25 cm, #235329), flow rate 1 ml/min, room temperature. The amino acids were resolved with a complex linear gradient composed of buffer A: 0.05 M ammonium acetate in water and buffer B: 0.1M ammonium acetate in 44% water, 46% acetonitrile, 10% methanol. The gradient established was 0-10% Buffer B in 35 min, then 10-30% Buffer B in 35 min. The PITC derivative of L-alanine elutes at a retention time of 35.0 min whereas the PITC derivative of β-alanine elutes at 26.6 min.
FIG. 8 is the effect of varying concentrations of L-alanine on the production of β-alanine by Clostridiurn subterminale SB4 lysine 2,3-aminomutase. Experimental conditions as given in FIG. 6 except for the concentration of L-alanine. The concentrations of L-alanine used: 0.05 M (2), 0.11 M (3), 0.20 M (4), and 0.38 M (5). The zero reaction time HPLC elution profile for 0.05 M L-alanine (1) is included. The enzyme was reacted with L-alanine for 90 min at 37° C. prior to stopping with perchloric acid and PITC derivatization.
FIG. 9 is the potentiating effect of ethyl and propylamines on the generation of β-alanine from L-alanine by Clostridium subterminale SB4 lysine 2,3-aminomutase. […]
Reductively incubated recombinant-produced purified Clostridium subterminale SB4 lysine-2,3-aminomutase (10 μM-hexamer) was mixed with the following components: 1) EPPS buffer 36 mM pH 8.0, Na salt; 2) S-(5′-adenosyl)-L-methionine 390 μM; 3) sodium hydrosulfite 3.6 mM; 4) L-alanine 380 mM; 5) ethylamine 0.20 M pH 8.0. […] The eluting compounds were detected by spectrophotometry at a wavelength of 254 nm The amino acids were resolved with a complex linear gradient composed of buffer A: 0.05 M ammonium acetate in water and buffer B: 0.1M ammonium acetate in 44% water, 46% acetonitrile, 10% methanol. […]

lysine 2,3-aminomutase = biological target: T2, lysine 2,3-aminomutase (Bacillus subtilis, UniProt O34676); assay: Lysine 2,3-aminomutase activity of extracts of E. coli BL21 (DE3) cells expressing the B. subtilus gene; type: biochemical, Bacillus subtilus; settings: pET23a(+) construct in E. coli BL21 (DE3), induction with 1 mM IPTG
T2 construct: made in house; host or cells: E. coli BL21 (DE3), pET23a(+), NdeI/XhoI; cell extract
Source text: In one instance, the gene from Bacillus subtilus (SEQ ID NO:9) was isolated from chromosomal DNA by PCR generating an oligonucleotide insert which after the appropriate restriction digestion was cloned into the NdeI and XhoI site of pET23a(+) expression vector (Novagen, Inc., Madison, Wis.).

[3] = biological target: T3, Clostridial lysine 2,3-aminomutase (Clostridium subterminale, UniProt Q9XBQ8); settings: purified enzyme from Clostridium subterminale SB4 cells; Lieder et al., Biochemistry 37:2578 (1998); cited from earlier work
T3 construct: made in house; host or cells: E. coli BL21(DE3) with pET-23a(+) (lysine 2,3-aminomutase gene) and pAlter-Ex2 (dnaY gene)

## NC(CCS)C(=O)O (racemic) [DL-homocysteine]
[1]
  EPR spectrum of product-related radical compared with L-lysine: less intense but otherwise essentially indistinguishable from that with L-lysine

## C[C@H](N)C(=O)O [L-alanine]
[2]; L-alanine 0.05 M to 0.38 M, ethylamine 0.20 M, 37° C.
  production of β-alanine from L-alanine: β-alanine was produced from L-alanine; also recorded: increased β-alanine with increased substrate (L-alanine) concentration
[2]; in the absence of ethylamine or propylamine, estimated
  rate of conversion of L-alanine to β-alanine relative to the rate with 0.2 M ethylamine: about 1/20
[1]
  EPR spectrum of product-related radical compared with L-lysine: less intense but otherwise essentially indistinguishable from that with L-lysine

## N[C@@H](CC(=O)O)C(=O)O [L-aspartate]
[1]
  EPR spectrum of product-related radical compared with L-lysine: less intense but otherwise essentially indistinguishable from that with L-lysine

## N[C@@H](CCC(=O)O)C(=O)O [L-glutamate]
[1]
  EPR spectrum of product-related radical compared with L-lysine: less intense but otherwise essentially indistinguishable from that with L-lysine

## N[C@@H](CCO)C(=O)O [L-homoserine]
[1]
  EPR spectrum of product-related radical compared with L-lysine: less intense but otherwise essentially indistinguishable from that with L-lysine

## CSCC[C@H](N)C(=O)O [L-methionine]
[1]
  EPR spectrum of product-related radical compared with L-lysine: weak but also consistent with expectations for the analogous radical

## CCCN [Propylamine]
[2]
  effect of amine on generation of β-alanine from L-alanine: potentiates the reaction less effectively than ethylamine

## CCN [ethylamine]
[2]
  effect of amine on generation of β-alanine from L-alanine: potentiated

B1: Bacillus subtilus (SEQ ID NO:9): product of the Bacillus subtilus gene cloned in pET23a(+) and expressed in E. coli BL21 (DE3); tested as cell extract (protein, listed as Bacillus subtilis)
chain: MKNKWYKPKRHWKEIELWKDVPEEKWNDWLWQLTHTVRTLDDLKKVINLTEDEEEGVRISTKTIPLNITPYYASLMDPDNPRCPVRMQSVPLSEEMHKTKYDLEDPLHEDEDSPVPGLTHRYPDRVLFLVTNQCSMYCRYCTRRRFSGQIGMGVPKKQLDAAIAYIRETPEIRDCLISGGDGLLINDQILEYILKELRSIPHLEVIRIGTRAPVVFPQRITDHLCEILKKYHPVWLNTHFNTSIEMTEESVEACEKLVNAGVPVGNQAVVLAGINDSVPIMKKLMHDLVKIRVRPYYIYQCDLSEGIGHFRAPVSKGLEIIEGLRGHTSGYAVPTFVVDAPGGGGKIALQPNYVLSQSPDKVILRNFEGVITSYPEPENYIPNQADAYFESVFPETADKKEPIGLSAIFADKEVSFTPENVDRIKRREAYIANPEHETLKDRREKRDQLKEKKFLAQQKKQKETECGGDSS
modifications: CDS (1)..(1413)
notes: product of the Bacillus subtilus gene cloned in pET23a(+) and expressed in E. coli BL21 (DE3); tested as cell extract
Lysine 2,3-aminomutase
  lysine 2,3-aminomutase activity of cell extracts: exhibiting lysine 2,3-aminomutase activity

B2: purified lysine 2,3-aminomutase from Clostridium subterminale SB4 cells: naturally produced Clostridial enzyme, SEQ ID NO: 2 (protein)
chain: MINRRYELFKDVSDADWNDWRWQVRNRIETVEELKKYIPLTKEEEEGVAQCVKSLRMAITPYYLSLIDPNDPNDPVRKQAIPTALELNKAAADLEDPLHEDTDSPVPGLTHRYPDRVLLLITDMCSMYCRHCTRRRFAGQSDDSMPMERIDKAIDYIRNTPQVRDVLLSGGDALLVSDETLEYIIAKLREIPHVEIVRIGSRTPVVLPQRITPELVNMLKKYHPVWLNTHFNHPNEITEESTRACQLLADAGVPLGNQSVLLRGVNDCVHVMKELVNKLVKIRVRPYYIYQCDLSLGLEHFRTPVSKGIEIIEGLRGHTSGYCVPTFVVDAPGGGGKTPVMPNYVISQSHDKVILRNFEGVITTYSEPINYTPGCNCDVCTGKKKVHKVGVAGLLNGEGMALEPVGLERNKRHVQE
modifications: Clostridium subterminale
[3]
  specific activity: 30-40 units/mg
